Key:
[1] = molecular target: T1, TgMcrBC complex (Thermococcus gammatolerans, UniProt C5A3Z3); experiment: malachite green phosphate release; assay type: biochemical; conditions: 1 mM GTP, 0.1 μM TgMcrC, 65 °C, pH 8.0, 150 mM KCl, 5 mM MgCl2
T1 construct: gene TGAM_0453; full-length McrB (1-613) and McrC (1-458); tags cut by HRV 3C (Gly-Pro left); E. coli; with McrC, endonuclease subunit of McrBC restriction complex (5-methylcytosine restriction system component McrC)
T1 sequence (C5A3Z3 1-613): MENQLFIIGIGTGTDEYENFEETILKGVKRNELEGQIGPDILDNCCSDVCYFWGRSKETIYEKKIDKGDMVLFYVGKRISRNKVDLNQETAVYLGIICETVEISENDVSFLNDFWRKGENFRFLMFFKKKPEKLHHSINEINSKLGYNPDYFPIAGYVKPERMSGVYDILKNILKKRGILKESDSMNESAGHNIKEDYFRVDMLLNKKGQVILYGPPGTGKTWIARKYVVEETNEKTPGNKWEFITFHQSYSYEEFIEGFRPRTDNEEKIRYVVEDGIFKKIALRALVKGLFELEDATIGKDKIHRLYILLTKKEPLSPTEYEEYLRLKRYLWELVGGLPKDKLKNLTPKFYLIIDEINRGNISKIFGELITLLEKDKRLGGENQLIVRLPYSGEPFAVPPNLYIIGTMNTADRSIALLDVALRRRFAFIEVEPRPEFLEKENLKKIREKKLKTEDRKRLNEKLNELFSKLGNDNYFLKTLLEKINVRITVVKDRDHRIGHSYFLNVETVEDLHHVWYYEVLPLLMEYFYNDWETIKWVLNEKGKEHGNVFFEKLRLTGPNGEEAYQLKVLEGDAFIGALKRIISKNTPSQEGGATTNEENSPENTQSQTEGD
T1 sequence (C5A3Z2 1-458 partner): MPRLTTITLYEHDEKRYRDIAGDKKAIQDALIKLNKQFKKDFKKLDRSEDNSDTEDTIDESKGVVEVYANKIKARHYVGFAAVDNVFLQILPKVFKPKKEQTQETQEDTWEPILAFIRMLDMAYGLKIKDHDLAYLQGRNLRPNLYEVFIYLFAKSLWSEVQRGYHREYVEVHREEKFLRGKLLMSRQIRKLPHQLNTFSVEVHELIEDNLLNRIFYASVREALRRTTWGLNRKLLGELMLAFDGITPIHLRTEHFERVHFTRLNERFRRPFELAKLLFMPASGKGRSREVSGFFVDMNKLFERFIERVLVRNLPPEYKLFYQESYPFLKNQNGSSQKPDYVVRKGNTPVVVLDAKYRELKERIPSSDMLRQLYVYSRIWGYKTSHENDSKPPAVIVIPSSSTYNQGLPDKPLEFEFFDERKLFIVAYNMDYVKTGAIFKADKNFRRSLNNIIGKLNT

[2] = molecular target: T2, TgMcrB (full-length) (Thermococcus gammatolerans, UniProt C5A3Z3); experiment: malachite green phosphate release; assay type: biochemical; conditions: 1 mM GTP, 65 °C, pH 8.0, 150 mM KCl, 5 mM MgCl2; no McrC
T2 construct: gene TGAM_0453; full-length, residues 1-613; 6xHis tag cut by HRV 3C (Gly-Pro left); E. coli BL21(DE3); hexamer

SMILES: Nc1nc2c(ncn2[C@@H]2O[C@H](COP(=O)(O)OP(=O)(O)OP(=O)(O)O)[C@@H](O)[C@H]2O)c(=O)[nH]1 [GTP]
- McrC-stimulated GTPase activity [1]: Purified TgMcrC similarly stimulates TgMcrB’s basal GTPase activity
- basal GTPase activity [2]: Alanine substitutions at Asn410 and Asp413 in full-length TgMcrB abolish both basal and McrC-stimulated GTPase activity

Source: article PMC7680126, “Structural asymmetry governs the assembly and GTPase activity of McrBC restriction complexes” (Nature Communications, 2020)
